Measured values published in article PMC4745898 (Science signaling, 2015).

Molecular target: TRPA1 (Rattus norvegicus, UniProt Q6RI86)
Assay: TIRF Ca2+ imaging of TRPA1 sparklets in cerebral artery endothelial cells
Assay type: cell-based

Sequence of TRPA1 (Q6RI86 whole entry): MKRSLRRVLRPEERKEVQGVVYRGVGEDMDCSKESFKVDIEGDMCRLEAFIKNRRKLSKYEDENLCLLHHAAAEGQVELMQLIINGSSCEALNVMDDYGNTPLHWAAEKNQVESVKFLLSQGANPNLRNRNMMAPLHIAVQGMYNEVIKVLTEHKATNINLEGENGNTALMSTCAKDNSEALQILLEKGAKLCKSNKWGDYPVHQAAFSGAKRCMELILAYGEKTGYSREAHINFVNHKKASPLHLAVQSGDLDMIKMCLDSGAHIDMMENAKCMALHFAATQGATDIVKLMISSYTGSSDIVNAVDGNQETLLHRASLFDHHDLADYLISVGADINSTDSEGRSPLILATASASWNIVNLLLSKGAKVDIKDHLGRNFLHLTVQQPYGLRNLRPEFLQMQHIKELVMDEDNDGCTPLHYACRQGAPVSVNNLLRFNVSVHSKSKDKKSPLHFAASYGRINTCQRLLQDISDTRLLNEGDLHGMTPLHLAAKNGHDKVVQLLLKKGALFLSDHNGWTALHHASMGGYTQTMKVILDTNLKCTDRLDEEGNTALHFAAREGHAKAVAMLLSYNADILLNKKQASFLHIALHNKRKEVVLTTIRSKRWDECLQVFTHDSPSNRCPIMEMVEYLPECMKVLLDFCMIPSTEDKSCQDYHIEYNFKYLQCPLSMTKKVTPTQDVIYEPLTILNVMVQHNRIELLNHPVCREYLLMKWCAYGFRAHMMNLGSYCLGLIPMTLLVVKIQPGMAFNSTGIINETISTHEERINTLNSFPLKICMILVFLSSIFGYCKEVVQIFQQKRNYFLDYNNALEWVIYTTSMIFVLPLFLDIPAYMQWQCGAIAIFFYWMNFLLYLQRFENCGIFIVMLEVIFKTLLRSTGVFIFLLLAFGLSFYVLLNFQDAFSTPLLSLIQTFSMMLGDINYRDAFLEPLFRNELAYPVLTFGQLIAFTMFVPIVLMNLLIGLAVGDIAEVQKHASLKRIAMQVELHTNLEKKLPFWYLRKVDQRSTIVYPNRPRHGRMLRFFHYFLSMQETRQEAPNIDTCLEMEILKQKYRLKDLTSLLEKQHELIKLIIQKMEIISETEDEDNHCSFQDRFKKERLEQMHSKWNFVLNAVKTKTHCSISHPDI

EC50: 64.8 ± 50.4 nM
Compound: CCCCCC(O)C=CC=O (stereo not shown) [4-HNE]
